For one compound, Ki and K inact results are on record in ChEMBL document CHEMBL1125264, “2'-Deoxy-2'-methylenecytidine and 2'-deoxy-2',2'-difluorocytidine 5'-diphosphates: potent mechanism-based inhibitors of ribonucleotide reductase” (J Med Chem, 1991).

Assay [1] has as its target Ribonucleoside-diphosphate reductase (Escherichia coli). Put plainly: Compound was evaluated for time-dependent inactivation of Ribonucleotide diphosphate reductase (RDPR) in Escherichia coli.
The subject of assay [2] is Ribonucleoside-diphosphate reductase (Escherichia coli). Put plainly: Compound was evaluated for time-dependent inactivation of rRibonucleotide diphosphate reductase (RDPR) in Escherichia coli.

The structures appear in SMILES notation.

Turning to `C=C1[C@H](n2ccc(=O)[nH]c2=O)O[C@H](COP(=O)(O)OP(=O)(O)O)[C@H]1O`, the Ki in assay [1] was 830 µM. Also, the K inact in assay [2] turned out to be 0.015 s⁻¹.
